# Laboratory results from patent US20160002267A1, “BENZYL-SUBSTITUTED PYRAZOLOPYRIDINES AND USE THEREOF” (BAYER PHARMA AKTIENGESELLSCHAFT, priority 2013, published 2016).
# Biological target: T1, guanylate cyclase (Rattus norvegicus, UniProt P19686+P20595)
# T1 construct: expressed in transfected cells; host or cells: recombinant reporter cell line
# T1 sequence (P20595 1-619): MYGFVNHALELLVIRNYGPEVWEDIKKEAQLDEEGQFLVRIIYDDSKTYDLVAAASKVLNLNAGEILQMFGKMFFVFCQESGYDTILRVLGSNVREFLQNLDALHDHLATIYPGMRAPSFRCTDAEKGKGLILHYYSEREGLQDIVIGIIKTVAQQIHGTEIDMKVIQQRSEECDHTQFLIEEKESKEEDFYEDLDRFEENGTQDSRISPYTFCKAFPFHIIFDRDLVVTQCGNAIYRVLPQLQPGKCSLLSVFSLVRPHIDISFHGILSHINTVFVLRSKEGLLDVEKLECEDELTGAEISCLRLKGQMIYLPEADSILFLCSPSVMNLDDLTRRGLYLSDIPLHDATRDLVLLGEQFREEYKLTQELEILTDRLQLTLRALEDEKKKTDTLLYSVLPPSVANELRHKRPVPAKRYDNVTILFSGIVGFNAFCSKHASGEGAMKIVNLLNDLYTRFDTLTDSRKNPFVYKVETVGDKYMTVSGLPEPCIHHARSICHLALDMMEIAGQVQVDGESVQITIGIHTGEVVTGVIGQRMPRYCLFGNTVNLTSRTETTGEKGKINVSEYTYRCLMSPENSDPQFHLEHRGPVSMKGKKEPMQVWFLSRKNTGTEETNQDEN
# T1 sequence (P19686 1-690): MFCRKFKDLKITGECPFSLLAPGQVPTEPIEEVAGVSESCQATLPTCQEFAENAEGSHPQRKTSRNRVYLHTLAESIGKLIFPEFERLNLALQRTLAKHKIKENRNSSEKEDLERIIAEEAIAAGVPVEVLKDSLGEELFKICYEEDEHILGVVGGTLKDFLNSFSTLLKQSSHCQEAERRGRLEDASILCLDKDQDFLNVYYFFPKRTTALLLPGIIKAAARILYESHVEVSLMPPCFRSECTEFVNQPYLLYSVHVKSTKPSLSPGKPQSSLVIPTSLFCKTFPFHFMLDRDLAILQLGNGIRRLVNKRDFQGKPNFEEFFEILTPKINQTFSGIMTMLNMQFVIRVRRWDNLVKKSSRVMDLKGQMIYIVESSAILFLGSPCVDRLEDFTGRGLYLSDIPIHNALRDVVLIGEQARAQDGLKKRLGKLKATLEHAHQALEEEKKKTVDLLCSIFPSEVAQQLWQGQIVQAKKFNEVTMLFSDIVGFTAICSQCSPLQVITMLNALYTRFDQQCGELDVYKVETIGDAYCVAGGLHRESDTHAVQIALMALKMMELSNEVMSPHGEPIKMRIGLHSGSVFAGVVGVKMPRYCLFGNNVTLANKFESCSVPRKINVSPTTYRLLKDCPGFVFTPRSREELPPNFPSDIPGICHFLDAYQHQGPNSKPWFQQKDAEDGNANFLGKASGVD
# Experiment: Effect on a recombinant guanylate cyclase reporter cell line
# Type: cell-based
# Experimental: The cellular activity of the compounds according to the invention is determined using a recombinant guanylate cyclase reporter cell line, as described in F. Wunder et al., Anal. Biochem. 339, 104-112 (2005).
structure (smiles),measurement,value
"CC1(C(F)(F)F)C(=O)Nc2nc(-c3nn(Cc4ccccc4F)c4ncc(F)cc34)nc(NCCC(F)(F)F)c21 (single isomer, unassigned) [Example 1-1, 2-[5-Fluoro-1-(2-fluorobenzyl)-1H-pyrazolo[3,4-b]pyridin-3-yl]-5-methyl-5-(trifluoromethyl)-4-[(3,3,3-trifluoropropyl)amino]-5,7-dihydro-6H-pyrrolo[2,3-d]pyrimidin-6-one]",MEC (minimum effective concentration),0.1 µM
